This test deals with T1, m-calpain (Rattus norvegicus, UniProt Q07009).
T1 construct: m-calpain was purified from a brain of rat; from tissue; host or cells: rat brain
T1 sequence (Q07009 20-700 limits assumed): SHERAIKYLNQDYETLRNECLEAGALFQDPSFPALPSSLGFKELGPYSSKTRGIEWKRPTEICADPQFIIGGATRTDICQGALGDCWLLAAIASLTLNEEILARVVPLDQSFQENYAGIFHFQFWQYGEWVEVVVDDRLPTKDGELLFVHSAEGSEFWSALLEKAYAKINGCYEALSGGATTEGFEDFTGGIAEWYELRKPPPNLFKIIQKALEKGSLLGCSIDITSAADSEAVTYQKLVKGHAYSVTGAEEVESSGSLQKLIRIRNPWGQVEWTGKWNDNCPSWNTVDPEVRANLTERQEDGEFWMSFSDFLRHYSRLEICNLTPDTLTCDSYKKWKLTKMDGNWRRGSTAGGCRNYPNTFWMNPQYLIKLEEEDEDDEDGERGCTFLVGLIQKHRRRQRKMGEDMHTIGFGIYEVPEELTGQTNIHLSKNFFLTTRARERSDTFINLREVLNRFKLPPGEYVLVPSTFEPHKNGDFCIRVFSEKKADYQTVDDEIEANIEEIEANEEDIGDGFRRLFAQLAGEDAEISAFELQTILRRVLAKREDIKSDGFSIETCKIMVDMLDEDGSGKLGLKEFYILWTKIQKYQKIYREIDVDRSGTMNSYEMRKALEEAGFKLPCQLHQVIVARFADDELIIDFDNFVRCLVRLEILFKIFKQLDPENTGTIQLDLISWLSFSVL
T1 sequence (Q64537 1-270 partner): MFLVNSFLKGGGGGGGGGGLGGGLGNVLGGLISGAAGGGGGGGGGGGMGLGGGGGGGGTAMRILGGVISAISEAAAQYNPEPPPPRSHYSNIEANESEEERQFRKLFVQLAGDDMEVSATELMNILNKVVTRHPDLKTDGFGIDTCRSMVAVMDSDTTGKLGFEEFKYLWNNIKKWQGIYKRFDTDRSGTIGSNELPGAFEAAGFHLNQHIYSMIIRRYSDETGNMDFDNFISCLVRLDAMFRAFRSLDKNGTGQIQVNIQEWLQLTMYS
The test can be described thus: Measurement of inhibitory activity against calpain. The settings on record: m-calpain purified from a brain of rat; read-out: 50% inhibitory concentration (IC50). In kind it is biochemical. How it is done:
Measurement of Inhibitory Activity against Calpain
Through the known method disclosed in Journal of Biological Chemistry, vol. 259, p.3210, (1984), m-calpain was purified from a brain of rat. The inhibitory activity against it was measured and determined according to the method disclosed in Journal of Biological Chemistry, vol. 259, p.12489 […].

Each structure is given as a SMILES string.

Among the data in patent US5422359A, “α-aminoketone derivatives” (Mitsubishi Kasei Corporation, priority 1992, dated 1995) are IC50 values, retold here.

Regarding `CCCC[C@H](NC(=O)[C@H](CC(C)C)NC(=O)OCc1ccccc1)C(=O)CCCc1ccco1` [Example 5], the IC50 worked out at 10.1 µM.
